The term CC50 denotes the concentration that lowers cell viability or growth by half.

Data set [1] is described as follows: Cytotoxicity assay (resazurin, 3 days), HepG2. The format is cell-based, human. To be noted: human. The method, then: (§1) HEK293T and HepG2 cells were cultured at 37 °C with 5% CO2 in Dulbecco’s modified eagle medium containing 10% FBS. Both cell lines were plated individually in 384 well plates (4000 cells per well) and the natural compounds (two fold 10 points serial dilution starting from 5 ppm) were added for 3 days of incubation.
On the technique in general: Resazurin is reduced to fluorescent resorufin, in cell work by metabolically active cells.

For data set [2], the system named is T. b. brucei strain 427 (bloodstream forms). In words: Anti-trypanosomal activity on T. brucei (resazurin growth inhibition, 3 days). The format is cell-based, Trypanosoma brucei. From the text:
To identify inhibitors of T. brucei growth, we conducted a screening of a proprietary library consisting of 440 purified natural products isolated from medicinal plants at the CNU laboratories. […] Nevertheless, since, according to the 5th rule, natural products may also represent exceptions from the other rules, all compounds were submitted to antiparasitic screening performed at a single concentration of 5 ppm (µg/mL) of each purified natural product.
T. b. brucei strain 427 (bloodstream forms) were cultivated at 37 °C with 5% CO2 atmosphere in HMI-9 medium supplemented with 10% FBS. […] After the incubation, the parasites were exposed to 120 µM of resazurin sodium salt for 5 h. Then, the parasites were fixed with 4% PFA and the assay plates were read by Victor 3 (PerkinElmer, Waltham, MA, USA) at 530 nmEx/590 nmEm. Pentamidine was used as a reference drug and DMSO 0.5% was used as a drug-negative control.

Data set [3] is described as follows: Cytotoxicity assay (resazurin, 3 days), HEK293T. To be noted: human. The format is cell-based, human. As for the experimental part:
as §1

The test system of another data set is HEK293T cells. In words: Cytotoxicity assay (resazurin, 3 days), HEK293T. The format is cell-based, human. Conditions: CC50 (HEK293T)/IC50 (T. brucei). As for the experimental part:
as §1

For a further data set, the system named is HepG2 cells. Briefly: Cytotoxicity assay (resazurin, 3 days), HepG2. Conditions: CC50 (HepG2)/IC50 (T. brucei). The format is cell-based, human. The method, then: as §1
Where [4] appears, read: Trypanosoma brucei, -log IC50 [M], experimental, read-out: pIC50 Tbr(exp) (converted).
Setting [5] is: T. b. brucei strain 427 bloodstream forms, 3 days, mean ± SD, read-out: T. brucei IC50.
[6] abbreviates: Trypanosoma brucei, 72 h, T. b. brucei strain 427 bloodstream forms, 3 days, mean ± SD, read-out: T. brucei IC50.

Like-named read-outs stand apart in the source and are kept apart here.

Turning to `CC(C)=CCc1cc(C(=O)/C=C/c2ccc(O)c(O)c2)c(O)cc1O` [Compound 4, broussochalcone A], the CC50 at 3 days in data set [1] was more than 29.2 µM; in data set [3] it was more than 28.8 µM. For the same compound, the IC50 in data set [2] (setting [4]) is 2.17e-06 M. For the same compound, the “s.i (selectivity index) HEK239T” value in the data set with HEK293T cells is reported as more than 13.28.

As to `COc1cc(O)ccc1C(=O)/C=C/c1ccc(O)cc1` [Compound 5, 3-deoxysappanchalcone], the “s.i (selectivity index) HepG2” value in the data set with HepG2 cells is more than 3.58. For the same compound, the cytotoxic concentration (CC50) at 3 days in data set [1] was more than 37.1 µM; in data set [3], more than 30.2 µM. Further, the IC50 is 1.04e-05 ± 3.36e-06 M in data set [2] (setting [5]), more than 1e-05 M in data set [2] (setting [6]) and 1.04e-05 M in data set [2] (setting [4]). Besides, the “s.i (selectivity index) HEK239T” value in the data set on HEK293T cells is reported as more than 2.91.

Regarding `CC(C)=CCC/C(C)=C/Cc1c(O)ccc(C(=O)/C=C/c2ccc(O)cc2)c1O` [Compound 6, xanthoangelol], the “s.i (selectivity index) HepG2” value in the data set with HepG2 cells is recorded as more than 3.43. In addition, the CC50 at 3 days in data set [1] and in data set [3] was more than 25.4 µM throughout. The IC50 in data set [2] (setting [6]) is 7.42e-06 ± 1.12e-06 M; in data set [2] (setting [4]), 7.41e-06 M. Besides, the “s.i (selectivity index) HEK239T” value in the data set on HEK293T cells is listed as more than 3.43.

As to `COc1cc(CC/C=C/C(=O)CCc2ccccc2)ccc1O` [Compound 7, 7-(4″-hydroxy-3″-methoxyphenyl)-1-phenylhept-4-en-3-one], in the data set on HepG2 cells, the “s.i (selectivity index) HepG2” value is reported as more than 13.05. The cytotoxic concentration (CC50) at 3 days in data set [1] and in data set [3] was more than 32.4 µM in each case. In addition, in data set [2] (setting [4]), the IC50 is 2.48e-06 M. The “s.i (selectivity index) HEK239T” value in the data set with HEK293T cells is reported as more than 13.05.

Take `COc1cc(C=CC=O)ccc1O` [Compound 8, 4-hydroxy-3-methoxycinnamaldehyde]: the “s.i (selectivity index) HepG2” value with HepG2 cells is reported as more than 3.47. The CC50 at 3 days in data set [1] is more than 57 µM; in data set [3], more than 48.1 µM. The IC50 in data set [2] (setting [5]) was 1.64e-05 ± 2.78e-06 M; in data set [2] (setting [6]), more than 1e-05 M; in data set [2] (setting [4]), 1.64e-05 M. Also, in the data set with HEK293T cells, the “s.i (selectivity index) HEK239T” value is recorded as more than 2.93.

Take `C=CCc1ccc(Oc2cc(/C=C/C=O)cc(O)c2O)cc1` [Compound 9, obovatal]: the “s.i (selectivity index) HepG2” value with HepG2 cells was more than 3.42. Besides, the cytotoxic concentration (CC50) at 3 days in data set [1] and in data set [3] was more than 33.8 µM throughout. Also, the IC50 in data set [2] (setting [6]) is 9.89e-06 ± 5.1e-07 M; in data set [2] (setting [4]), 9.89e-06 M. The “s.i (selectivity index) HEK239T” value in the data set with HEK293T cells is given as more than 3.42.

For the compound `C=CCc1ccc(O)c(-c2ccc(O)c(CC=C)c2)c1` [Compound 10, honokiol], the “s.i (selectivity index) HepG2” value in the data set with HepG2 cells is more than 4.29. Also, the CC50 at 3 days in data set [1] and in data set [3] was more than 37.6 µM in each case. The IC50 was 8.76e-06 ± 3.8e-07 M in data set [2] (setting [6]) and 8.77e-06 M in data set [2] (setting [4]). Moreover, the “s.i (selectivity index) HEK239T” value in the data set on HEK293T cells is recorded as more than 4.29.

For the compound `C=C[C@H](OC(C)=O)c1ccc(OC(C)=O)cc1` [Compound 11, 1′S-1′-acetoxychavicol acetate], the “s.i (selectivity index) HepG2” value with HepG2 cells is more than 6.38. Further, the CC50 at 3 days is more than 30 µM in data set [1] and more than 23.2 µM in data set [3]. The IC50 is 4.7e-06 ± 1.53e-06 M in data set [2] (setting [5]), less than 5e-06 M in data set [2] (setting [6]) and 4.7e-06 M in data set [2] (setting [4]). Also, the “s.i (selectivity index) HEK239T” value with HEK293T cells was more than 4.94.

`COc1ccc([C@H](O)[C@@H](C)Oc2ccc([C@H]3O[C@H](c4ccc5c(c4)OCO5)[C@H](C)[C@H]3C)cc2OC)cc1OC` [Compound 12, saucerneol D]: the “s.i (selectivity index) HepG2” value in the data set on HepG2 cells is listed as more than 3.32. In addition, the 50% cytotoxic concentration (CC50) at 3 days in data set [1] is more than 18.6 µM; in data set [3], more than 16.2 µM. The IC50 in data set [2] (setting [6]) was 5.61e-06 ± 9e-08 M; in data set [2] (setting [4]) it was 5.61e-06 M. Also, the “s.i (selectivity index) HEK239T” value in the data set with HEK293T cells was more than 2.89.

Take `COc1ccc([C@@H](O)[C@@H](C)Oc2ccc([C@H]3O[C@H](c4ccc(O[C@H](C)[C@H](O)c5ccc(OC)c(OC)c5)c(OC)c4)[C@H](C)[C@H]3C)cc2OC)cc1OC` [Compound 13, manassantin A]: the CC50 at 3 days in data set [1] (HepG2 cells, 3 days, > = highest concentration tested (5 ppm), read-out: Cytotoxicity CC50 Values HepG2) is more than 13.7 µM; in data set [3] (HEK293T cells, 3 days, > = highest concentration tested (5 ppm), read-out: Cytotoxicity CC50 Values HEK239T), more than 11.8 µM. The IC50 in data set [2] (Trypanosoma brucei, 72 h, read-out: T. brucei IC50) was 5.43e-06 ± 2.6e-07 M; in data set [2] (Trypanosoma brucei, read-out: pIC50 Tbr(exp) (converted)), 5.43e-06 M.

As for `N=C(N)c1ccc(OCCCCCOc2ccc(C(=N)N)cc2)cc1` [Pentamidine, reference compound], the IC50 in data set [2] (setting [6]) was 4e-09 ± 3e-09 M. Further, the “s.i (selectivity index) HEK239T” value in the data set on HEK293T cells was less than 26.7.

(Values after article PMC6273235, “Phenolic Constituents of Medicinal Plants with Activity against Trypanosoma brucei” (Molecules, 2016).)
